Laboratory results reported in EP2401611B1, “IMPROVED METHODS FOR IDENTIFICATION” (Cambridge Enterprise Limited, priority 2009, dated 2010).
Read-outs that look alike come from different tables or passages of the source. Values belong to the compound of their own block, whether it stands above or below them.

How the values were obtained:
[1] = tested on: THP-1 cells; assay: MCP-1 induced THP-1 cell migration (Transwell) assay; type: cell-based, human; conditions: for "Classical" : "BSCI" potency ratio Human: Table 3, THP-1 migration ED50 versus Panc-2H4 insulin suppression ED50
Method: Leukocyte migration was measured using the 96-well format micro Transwell^RTM assay system from Neuroprobe (Gaithersburg, MD, USA). In principle, this assay consists of two chambers separated by a porous membrane. The chemoattractant is placed in the lower compartment and the cells are placed in the upper compartment. After incubation for a period at 37°C the cells move towards the chemoattractant, and the number of cells in the lower compartment is proportional to the chemoattractant activity (relative to a series of controls).
(§1) The method was performed essentially as previously described (Reckless & Grainger (1999) Biochem. J. 340:803-11).
First, the cell suspension to be placed in the upper compartment was prepared. The THP-1 cells were pelleted by centrifugation (770 x g; 4 mins) and washed with Geys Balanced Salt Solution with 1mg/ml BSA (GBSS + BSA). This wash was then repeated, and the cells re-pelleted before being resuspended in a small volume of GBSS + BSA for counting, for example using a standard haemocytometer.
The volume of GBSS + BSA was then adjusted depending on the number of cells present so that the cells were at final density of 4.45 x 10^6 cells per ml of GBSS + BSA. This ensured that there were 100,000 THP-1 cells in each 25µl of the solution to be placed in the upper chamber of the plate.
The suspension of THP-1 cells at 4.45 x 10^6 cells/ml was divided into three pots. To one pot the BSCI was added at an appropriate final concentration, in an appropriate vehicle (for example (S)- 3-(2',2'-dimethylpropanoylamino)-tetrahydropyridin-2-one was added at 1nM from a stock solution in GBSS). To the second pot, the BSCI was added at the same concentration as in the first pot, but additionally the sstr2 antagonist was also added (for example BIM 23454 [Tulipano et al. (2002) 143:1218-24] or BIM 23627 were added at 66nM final concentration from a stock solution in GBSS). To the third pot, GBSS + BSA plus vehicle as appropriate was added so that the volumes in three pots are equal, acting as a control.
Next, the chemoattractant solution to be placed in the lower compartment was prepared. […]. Note that, as recommended by Frow et al (Med. Res. Rev. 24:276-98) this is the concentration of MCP-1 which induces maximal migration in this system. This solution was divided into three pots, as for the cell suspension. To one pot, the BSCI was added to the same final concentration as was added to the cell suspension, in the second pot the BSCI and the sstr2 antagonist were both added at the same concentration as previously added to the cell suspension, while to the remaining pot GBSS + BSA plus vehicle as appropriate was added so that the volumes in the three pots were equal. Note that the volume of liquid that needs to be added to make the addition of the BSCI and the sstr2 antagonist compounds needs to be taken into account, when establishing the final concentration of MCP-1 in the solution for the lower compartment and the final concentration of cells in the upper compartment.
(§2) Once the chemoattractant solutions for the lower wells and cell solutions for the upper chambers were prepared, the migration chamber was assembled. 29 µl of the appropriate chemoattractant solution was placed into the lower well of the chamber. Assays were performed with at least triplicate determinations of each condition. Once all the lower chambers were filled, the porous membrane was applied to the chamber in accordance with the manufacturer's instructions. Finally, 25 µl of the appropriate cell solution was applied to each upper chamber. A plastic lid was placed over the entire apparatus to prevent evaporation.
The assembled chamber was incubated at 37 °C, 5% CO2, for 2 hours. A suspension of cells in GBSS + BSA was also incubated under identical conditions in a tube: these cells were used to construct a standard curve for determining the number of cells that migrated to the lower chamber under each condition. […]

[2] = tested on: Panc-2H4; assay: Human Panc-2H4 insulin suppression assay; type: cell-based
From the text: (§3) Two different assays for "classical" sstr2 functions were adopted: (1) cultured foetal rat pituitary cells secreted growth hormone which is inhibited by sstr2 agonists in a dose-dependent fashion and (2) selected glucose-sensitive sub-clones of the human Panc-1 cell line secrete insulin which is inhibited by sstr2 agonists in a dose-dependent fashion.
Glucose-sensitive sub-clones of the human Panc-1, a cell line derived from a pleiomorphic epithelioid carcinoma of the exocrine pancreas, were obtained essentially as described by Hamil et al. (2008) Biomed. Sci. Instrum. 44:441-6. Briefly, Panc-1 cells were subcultured in 24 well plates, and the medium was supplemented with an additional 5% glucose. […] The resulting sub-lines were then tested for glucose sensitivity by preparing wells of a 96-well plate (5 x 10^4 cells per well) which were then exposed to cultured medium containing a range of glucose concentrations (low glucose DMEM, DMEM, DMEM + 1% glucose, DMEM ± 2.5% glucose and DMEM + 5% glucose). After 24hrs incubation, the conditioned medium was collected and assayed for insulin secretion by ELISA (Linco; cat# EZHI-14K) in accordance with the manufacturer's instructions. […] Further 96 well plates were prepared using Panc-2H4 (5 x 10^4 cells per well) in DMEM. After 24hrs, the medium was switched to DMEM + 5% glucose containing various test agents at various concentrations (triplicate wells per condition). After a further 24hrs, the conditioned medium was harvested and the concentration of insulin was determined by ELISA as described above.
(§4) Results were reported as the mean ± SD, expressed as the fold change from cells in the presence of vehicle only.

[3] = target: sstr2 (Homo sapiens, UniProt P30874); assay: [3H]-BN83250 equilibrium binding to THP-1 cells
Method: We have investigated the molecular interaction between BSCIs and the sstr2 receptor using conventional equilibrium binding studies employing labelled BSCI ligands.
For the analysis of binding, individual reactions were set up (in triplicate for each condition), with 1x10^6 THP-1 cells in Gey's Balanced Salt Solution, 10nM [^3H]-BN83250 (at 50 Ci/mmol) and various concentrations of (S)-3(2'2'-dimethylpropionoylamino)-tetrahydropyridin-2-one (10pM to 10µM). Excess (100µM) unlabelled BN83250 was used to determine the level of non-specific binding. After 2 hours at 4°C (conditions previously shown to achieve equilibrium binding, and which prevent uptake of the radioligand that would result in an over-estimate of binding) excess label was washed away by centrifugation (3 washes with 5ml of Gey's Balanced Salt Solution) and the bound radioactivity was determined by scintillation counting of the solubilised cell pellet.

[4] = tested on: fetal rat pituicytes; assay: Rat pituicyte GH suppression assay; type: cell-based; conditions: for EC50: Table 3, read-out: Rat pituicyte GH suppression assay ED50
From the text: as §3
Methods: Cultures of fetal rat pituicytes were established exactly as previously described (Murray et al. (2004) J. Clin. Endocrinol. Metab. 89:3027-32) by enzymatic dispersion. After 48hrs in low glucose DMEM plus 10% FCS, cells in 48 well plates (5 x 10^4 cells per well) were washed for 4hrs in serum-free DMEM and then incubated with test agents at various concentrations for a further 24hrs in serum-free DMEM. At the end of this period, the conditioned medium was harvested, any cell debris removed by centrifugation and assayed for GH using a commercially available ELISA (Linco; cat# EZRMGH-45K) in accordance with the manufacturer's instructions.
as §4

[5] = tested on: rat peripheral blood leukocytes; assay: Rat chemokine-induced PBMC migration assay; type: cell-based
[6] = tested on: THP-1 cells; assay: MCP-1 induced THP-1 cell migration (Transwell) assay; type: cell-based, human
Method: In principle, this assay consists of two chambers separated by a porous membrane. The chemoattractant is placed in the lower compartment and the cells are placed in the upper compartment.
as §1
First, the cell suspension to be placed in the upper compartment was prepared.
Next, the chemoattractant solution to be placed in the lower compartment was prepared. […] Note that, as recommended by Frow et al (Med. Res. Rev. 24:276-98) this is the concentration of MCP-1 which induces maximal migration in this system. This solution was divided into three pots, as for the cell suspension.
as §2, with “29 µl of the appropriate chemoattractant solution was placed into the lower well of the chamber.” left out, “Finally, 25 µl of the appropriate cell solution was applied to each upper chamber.” left out
This procedure caused any cells adhering to the underside of the membrane to fall into the lower chamber.
The number of cells migrated into the lower chamber under each condition can then be determined by a number of methods, including direct counting, labelling with fluorescent or radioactive markers or through the use of a vital dye. Typically, we utilised the vital dye MTT.

[7] = target: type 2 somatostatin receptor (sstr2), human (human) (UniProt P30874); assay: cell-based or functional assay
[8] = Table 4, 0.01nM to 1,000nM in DMSO vehicle, read-out: Chemokine-induced THP-1 cell migration assay ("BSCI" target) ED50
[9] = Table 4, 0.01nM to 1,000nM in DMSO vehicle, read-out: Panc-2H4 insulin suppression assay ("classical" target) ED50
[10] = Table 4, THP-1 migration ED50 versus insulin suppression ED50
[11] = Table 3, percentage suppression compared to vehicle

sstr2, sequence (P30874 whole entry): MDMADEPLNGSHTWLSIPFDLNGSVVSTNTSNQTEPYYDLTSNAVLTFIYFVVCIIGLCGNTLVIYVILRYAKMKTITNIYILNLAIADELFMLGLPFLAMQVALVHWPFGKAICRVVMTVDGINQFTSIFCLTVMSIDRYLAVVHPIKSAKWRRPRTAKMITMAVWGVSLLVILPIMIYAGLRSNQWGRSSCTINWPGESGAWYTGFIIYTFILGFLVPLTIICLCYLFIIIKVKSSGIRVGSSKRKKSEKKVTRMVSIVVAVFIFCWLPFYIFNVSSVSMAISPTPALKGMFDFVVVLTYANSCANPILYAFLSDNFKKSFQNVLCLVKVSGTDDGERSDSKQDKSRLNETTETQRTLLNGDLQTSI

Compound: CC(=O)NC(CC(N)=O)C(=O)NC(C(=O)NCC1CCCC(CN)C1)C(C)c1c[nH]c2ccccc12 (mixture of isomers) [D]
Chemokine-induced THP-1 cell migration assay ("BSCI" target) Max Effect (%) ([1]; Table 4): <10% | EC50 [1, 8]: > 1000 nM | Panc-2H4 insulin suppression assay ("classical" target) Max Effect (%) ([2]; Table 4): 37% | EC50 [2, 9]: 650 nM

Compound: CC1(C(=O)N[C@H]2CCCCNC2=O)CCCCC1 [(S)-3-(1'-methylcyclohexyl-1'-carbonylamino)-caprolactam]
competition with BN83250 binding to sstr2 (in words) [3]: also compete with BN83250 binding to sstr2 to a similar extent

Compound: O=C1NCCCC[C@@H]1NC(=O)C12CC3CC(CC(C3)C1)C2 [BN83470, (S)-3-(admantane-1'-carbonylamino)-caprolactam]
EC50 ([1]; Homo sapiens, THP-1, Table 3, read-out: Human chemokine-induced THP-1 migration assay ED50): 0.08 nM | Emax ([1]; Homo sapiens, THP-1, Table 3, read-out: Human chemokine-induced THP-1 migration assay Max effect (%)): 100% | "Classical" : "BSCI" potency ratio Human [1]: <0.00008 | Emax ([4]; Rattus norvegicus, Table 3, percentage suppression compared to vehicle, read-out: Rat pituicyte GH suppression assay Max effect (%)): 56% | EC50 ([4]; Rattus norvegicus): 270 nM | Emax ([2]; Homo sapiens, Table 3, percentage suppression compared to vehicle, read-out: Human Panc-2H4 insulin suppression assay Max effect (%)): < 10% | EC50 ([5]; Rattus norvegicus, Leukocyte, Table 3, read-out: Rat chemokine-induced PBMC migration assay ED50): 0.22 nM | Emax ([5]; Rattus norvegicus, Leukocyte, Table 3, read-out: Rat chemokine-induced PBMC migration assay Max effect (%)): 100% | "Classical" : "BSCI" potency ratio Rat ([5]; Table 3, rat PBMC migration ED50 versus rat pituicyte GH suppression ED50): 0.0008 | competition with BN83250 binding to sstr2 (in words) [3]: also compete with BN83250 binding to sstr2 to a similar extent

Compound: CC(c1c[nH]c2ccccc12)C(NC(=O)N1CCC(NC(N)=O)CC1)C(=O)NCC1CCCC(CN)C1 (stereo not drawn) [Compound A]
EC50 [1, 8]: > 1000 nM

Compound: CC(c1c[nH]c2ccccc12)C(NC(=O)N1CC(=O)NC(=O)C1)C(=O)NCC1CCCC(CN)C1 (stereo not drawn) [Compound B]
Chemokine-induced THP-1 cell migration assay ("BSCI" target) Max Effect (%) ([1]; Table 4): 100% | EC50 [1, 8]: 220 nM | RATIO [1, 10]: 1.3 | Panc-2H4 insulin suppression assay ("classical" target) Max Effect (%) ([2]; Table 4): 52% | EC50 [2, 9]: 167 nM

Compound: CC(c1c[nH]c2ccccc12)C(NC(=O)NC1CCCNC1=O)C(=O)NCC1CCCC(CN)C1 (stereo not drawn) [Compound C]
Chemokine-induced THP-1 cell migration assay ("BSCI" target) Max Effect (%) ([1]; Table 4): 100% | EC50 [1, 8]: 2 nM | RATIO [1, 10]: 0.02 | Panc-2H4 insulin suppression assay ("classical" target) Max Effect (%) ([2]; Table 4): 56% | EC50 [2, 9]: 82 nM

Compound: CC(=O)NC(=O)C(NC(=O)N1CCC(n2c(=O)[nH]c3ccccc32)CC1)C(C)c1c[nH]c2ccccc12 (stereo not drawn) [Compound E]
Chemokine-induced THP-1 cell migration assay ("BSCI" target) Max Effect (%) ([1]; Table 4): <10% | EC50 [1, 8]: > 1000 nM | Panc-2H4 insulin suppression assay ("classical" target) Max Effect (%) ([2]; Table 4): <10% | EC50 [2, 9]: > 1000 nM

Compound: Cortistatin
ED50 for inhibition of chemokine-induced THP-1 cell migration [6]: ~75 nM | ED50 ([6]; Table 2, inhibition of MCP-1 induced THP-1 cell migration): 75 nM | Max effect ([6]; Table 2, maximum inhibition at the highest dose tested (1-10µM)): 40-60% | maximal inhibition of leukocyte migration ([6]; even at maximal / very high doses): ~50%

More lines, main results first:

EC50 [1, 8]: > 1000 nM | EC50 [2, 9]: > 1000 nM
Compound: NCC1CCCC(CNC(=O)C(Cc2ccccc2)NC(=O)N2CCC(n3c(=O)[nH]c4ccccc43)CC2)C1 (stereo not drawn) [F]
Chemokine-induced THP-1 cell migration assay ("BSCI" target) Max Effect (%) ([1]; Table 4): <10% | Panc-2H4 insulin suppression assay ("classical" target) Max Effect (%) ([2]; Table 4): <10%

EC50 ([1]; Table 3, read-out: Human chemokine-induced THP-1 migration assay ED50): 450 nM | EC50 [1, 8]: 450 nM | EC50 ([1]; Table 5, library screening hits, read-out: Chemokine-induced THP-1 cell migration assay ("BSCI" target) ED50): 450 nM | EC50 [4]: 2.9 nM | EC50 ([2]; Table 3, read-out: Human Panc-2H4 insulin suppression assay ED50): 17 nM | EC50 [2, 9]: 17 nM | EC50 ([2]; Table 5, library screening hits, read-out: Panc-2H4 insulin suppression assay ("classical" target) ED50): 17 nM
Compound: C[C@@H](c1c[nH]c2ccccc12)[C@@H](NC(=O)N1CCC(n2c(=O)[nH]c3ccccc32)CC1)C(=O)NC[C@@H]1CCC[C@H](CN)C1 [L-779,976]
Human chemokine-induced THP-1 migration assay Max effect (%) ([1]; Table 3): 65% | "Classical" : "BSCI" potency ratio Human [1]: 27 | Chemokine-induced THP-1 cell migration assay ("BSCI" target) Max Effect (%) ([1]; Table 4): 65% | RATIO [1, 10]: 26.5 | Chemokine-induced THP-1 cell migration assay ("BSCI" target) Max Effect (%) ([1]; Table 5): 65% | RATIO ([1]; Table 5, THP-1 migration ED50 versus insulin suppression ED50): 26.5 | Rat pituicyte GH suppression assay Max effect (%) [4, 11]: 55% | Human Panc-2H4 insulin suppression assay Max effect (%) [2, 11]: 40% | Panc-2H4 insulin suppression assay ("classical" target) Max Effect (%) ([2]; Table 4): 40% | Panc-2H4 insulin suppression assay ("classical" target) Max Effect (%) ([2]; Table 5): 40%

ED50 for inhibition of MCP-1 induced THP-1 cell migration [7]: 75 nM
Compound: cortistatin (peptide)

"Classical" : "BSCI" potency ratio, Human [7]: 6 | ED50 for inhibition of MCP-1 induced THP-1 cell migration [7]: 0.9 nM | Human Panc-2H4 insulin suppression assay, ED50 [7]: 0.14 nM | Human chemokine-induced THP-1 migration assay, ED50 [7]: 0.9 nM
Compound: somatostatin-28 (from UniProt P61278 89-116) (peptide)
